What is called IC50 is the point on the concentration scale where inhibition reaches its midpoint. A lower IC50 goes with greater potency.

Our source for the IC50 and Ki values is ChEMBL document CHEMBL1127991, “Design, synthesis and evaluation of dual domain FKBP ligands” (Bioorg Med Chem Lett, 1994).

SMILES strings stand for the structures.

Experiment [1] is described as follows: Immunosuppressant-like activity in an in vitro splenocyte mitogenesis assay at concentration up to 10 uM; ND means not detected. In kind it is functional.
The target in experiment [2] is T1, Peptidyl-prolyl cis-trans isomerase FKBP1A (Homo sapiens, UniProt P62942). Nature of the experiment: Compound was tested for inhibitory activity against FK506 binding protein 12 (FKBP12). The following applies: read-out: Ki app.
The target in experiment [3] is T1, Peptidyl-prolyl cis-trans isomerase FKBP1A. Kind of experiment: Compound was tested for inhibitory activity against FK506 binding protein 12 (FKBP12); Value ranges from 190-900 nM. To be noted: read-out: Ki app.
Experiment [4] is described as follows: Immunosuppressant-like activity in an in vitro splenocyte mitogenesis assay at concentration up to 10 uM. In kind it is functional.

T1 sequence (P62942 whole entry): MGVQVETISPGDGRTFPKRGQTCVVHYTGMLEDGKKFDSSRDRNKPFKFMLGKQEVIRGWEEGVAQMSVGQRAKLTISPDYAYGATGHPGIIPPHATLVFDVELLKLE

In the case of `CCC(C)(C)C(=O)C(=O)N1CCCC[C@H]1C(=O)O[C@H](CCc1ccccc1)c1cccc(C(=O)c2ccccc2)c1`, in experiment [1], the IC50 result is on record as “Not detected”. In addition, the Ki in experiment [2] turned out to be 5 nM. Regarding `CCC(C)(C)C(=O)C(=O)N1CCCC[C@H]1C(=O)O[C@H](CCc1ccccc1)C(C)(C)/C=C/C(=O)c1ccccc1`, the IC50 result in experiment [1] is “Not detected”. For the same compound, the Ki in experiment [3] was found to be 190 nM. Turning to `CCCC(CCC)C(=O)/C=C/C(C)(C)[C@@H](CCc1ccccc1)OC(=O)[C@@H]1CCCCN1C(=O)C(=O)C(C)(C)CC`, the IC50 result in experiment [1] is given as “Not detected”. Moreover, the Ki in experiment [3] was 190 nM. For `C=CC[C@@H]1/C=C(\C)C[C@H](C)C(=O)OCCCC(C)(C)C(=O)C(=O)N2CCCC[C@H]2C(=O)OCCCOC1=O`, the Ki in experiment [2] turned out to be 400 nM. For `C=CC[C@@H]1/C=C(\C)C[C@H](C)C(=O)OCC(C)(C)C(=O)C(=O)N2CCCC[C@H]2C(=O)O[C@H](CCc2ccccc2)[C@H](C)COC1=O`, the Ki in experiment [2] stood at 6000 nM. In the case of `CCC(C)(C)C(=O)C(=O)N1CCCC[C@H]1C(=O)O[C@H](CCc1ccccc1)C(C)(C)/C=C/C(=O)C1CCCCC1`, the IC50 result in experiment [1] was “Not detected”. The Ki in experiment [2] is 340 nM.

`CC1(C)COC(=O)CCCCCCCCC(=O)c2cccc(c2)C(CCc2ccccc2)OC(=O)[C@@H]2CCCCN2C(=O)C1=O` (stereo partly drawn): the Ki in experiment [2] was found to be 20 nM. Regarding `CC1(C)COC(=O)CCCCC(=O)/C=C/C(C)(C)[C@@H](CCc2ccccc2)OC(=O)[C@@H]2CCCCN2C(=O)C1=O`, in experiment [2], the Ki turned out to be 175 nM. Consider `CC1(C)COC(=O)CCCCC(=O)CCC(C)(C)[C@@H](CCc2ccccc2)OC(=O)[C@@H]2CCCCN2C(=O)C1=O`, for which the Ki in experiment [2] was 25 nM. For `C=CCN(CC=C)C(=O)c1cccc([C@@H](CCc2ccccc2)OC(=O)[C@@H]2CCCCN2C(=O)C(=O)C(C)(C)CC)c1`, the IC50 result in experiment [1] is “Not detected”. Moreover, the Ki in experiment [2] is 5 nM. As to `C=CC[C@@H]1/C=C(\C)C[C@H](C)C(=O)OCC(C)(C)C(=O)C(=O)N2CCCC[C@H]2C(=O)OCCCOC1=O`, the Ki in experiment [2] is 130 nM. Turning to `C=CC[C@@H]1/C=C(\C)C[C@H](C)C(=O)OCCCC(C)(C)C(=O)C(=O)N2CCCC[C@H]2C(=O)O[C@H](CCc2ccccc2)[C@H](C)COC1=O`, the Ki in experiment [2] is greater than 5000 nM. The compound `C=CC[C@@H]1/C=C(\C)C[C@H](C)C[C@H](OC)[C@H]2O[C@@](O)(C(=O)C(=O)N3CCCC[C@H]3C(=O)O[C@H](/C(C)=C/[C@@H]3CC[C@@H](O)[C@H](OC)C3)[C@H](C)[C@@H](O)CC1=O)[C@H](C)C[C@@H]2OC` [TACROLIMUS ANHYDROUS] gave an IC50 in experiment [4] of 1 nM.
